Test results published in US7879817B2, “Hyaluronic acid derivative and drug containing the same” (priority 2004, dated 2011).

Columns and labels:
[1] = Sustained release property in the rabbit knee joint (residual ratio in synovial fluid and synovium); details: intra-articular
[2] = test system: 1% silver nitrate-induced pain model; assay: 1% silver nitrate-induced pain model in rats
From the text: As General anesthesia, inhalation of isoflurane (Forane (registered trade mark), Dainippon Pharmaceutical Co., Ltd., concentration 3.0%, flow rate 2.0 liters/min) filled in a small animal anesthetizer (TK-4, manufactured by BioMachinery Co., Ltd.) was employed.
Rats (Crj:SD (SPF), male, 6-weeks-old) were fixed in the supine position under ether anesthesia, and a wide area around the knee joint of the left hind paw was shaved with an electric clipper. After disinfecting the area around the joint by spraying 70% alcohol, 1% silver nitrate solution was administered into the knee joint cavity of the left hind paw at a dose of 50 μl/joint using a 29 G needle-tipped syringe for insulin use (manufactured by Terumo Corp.).
Regarding the administration method, as in the case of algesic substances, the area around the joint was disinfected by spraying 70% alcohol under inhalation anesthesia by isoflurane, and each test substance was administered into the knee joint cavity of the left hind paw at a dose of […] using a 29 G needle-tipped syringe for insulin use (n=5).
The walking of each group was visually observed and scored by using the following pain score table which was figured walking in score under blinded conditions.
Score • 0: Normal (includes nearly normal) • 1: Mild claudication • 2: Severe claudication • 3: Walking on three legs
In addition, the weight loading on the silver nitrate-injected paw (left hind paw) was measured by using a weighting activity analgesia meter (manufactured by Tokken Inc.), and the weight loading rate was calculated by dividing the measured value by the body weight.
Test substances were orally administered by using a sonde for oral administration to rat (manufactured by Fuchigami Kikai) at a dose of 1 ml/head.
In FIG. 6, the “Diclofenac Na (p.o.) 50 mg/kg” corresponds to the above-described (i) (high dose group), and the “Diclofenac Na (p.o.) 1 mg/kg” corresponds to the above-described (ii) (low dose group).

Filter pass through test = type: physicochemical; details: 1.0% by weight in PBS, 0.45 μm porous filter (25 mm in diameter), 24° C., 5.0 kg/cm^2
Procedure: PBS in which each substance to be tested was dissolved to a concentration of 1.0% by weight was prepared. At a temperature of 24° C. under pressure of 5.0 kg/cm^2, each solution of the substances to be tested prepared in the following examples was passed through a 0.45 μm porous filter (25 mm in diameter), and the passed amount (ml) per 1 minute was measured A case in which 2 ml or more was passed is shown by “A”, and a case in which less than 2 ml was passed by “B”, and a case in which none passed by “C”.

[3] = Appearance of the 1.0% by weight solution in PBS; type: physicochemical; details: dissolved in PBS to 1.0% by weight
[4] = intra-articular injection 24 hours after 1% silver nitrate, in comparison with PBS

Compound: CC(C(=O)O)c1cccc(C(=O)c2ccccc2)c1 (centres unmarked) [KP, ketoprofen]
- time until KP disappeared from the synovial fluid and synovium [1]: ≤ 6 h
- time until KP disappeared from the synovium [1]: ≤ 6 h

Compound: O=C(O)Cc1ccccc1Nc1c(Cl)cccc1Cl [diclofenac sodium, reference compound]
- analgesic effect (pain score, walking) [2, 4]: did not show significant effect in comparison with PBS
- adverse effects observed ([2]; oral administration, high dose 50 mg/kg): positive fecal occult blood reaction, jaundice-like symptom and body weight loss were observed from the next day
- analgesic effect (pain score, walking) ([2]; oral administration, high dose 50 mg/kg (1% suspension in 10% gum arabic, 1 ml/head)): showed analgesic effect
- analgesic effect (pain score, walking) ([2]; oral administration, low dose 1 mg/kg (0.02% suspension in 10% gum arabic, 1 ml/head)): the effect was not found in comparison with the PBS intra-articular injection group

Compound: Aminoethanol-diclofenac-Introduced Sodium Hyaluronate (DS 14.7%) [Example 39]
- analgesic effect (pain score, walking) [2, 4]: showed remarkable analgesic effect

Compound: Aminopropanol-acetylsalicylic Acid-Introduced Sodium Hyaluronate [Example 11]
- filter pass through test (passed amount per 1 minute) (Filter pass through test): A (2 ml or more was passed)
- appearance of the solution [3]: colorless and transparent liquid

Compound: Aminopropanol-diclofenac-Introduced Sodium Hyaluronate (65 kDa) Sodium (DS 17.1%) [Example 37]
- analgesic effect (pain score, walking) [2, 4]: showed diminished analgesic effect in comparison with the case of the molecular weight of 800,000

Compound: Aminopropanol-diclofenac-Introduced Sodium Hyaluronate (DS 4.3%) [Example 35]
- analgesic effect (pain score, walking) [2, 4]: showed analgesic effect

Compound: Aminopropanol-diclofenac-Introduced Sodium Hyaluronate (DS 9.7%) [Example 36]
- analgesic effect (pain score, walking) [2, 4]: showed a remarkable analgesic effect in comparison with PBS

Compound: Aminopropanol-diclofenac-Introduced Sodium Hyaluronate [Example 19]
- analgesic effect (pain score, walking) ([2]; intra-articular injection 24 hours after 1% silver nitrate, in comparison with PBS, listed as DS 18.2%): showed a remarkable analgesic effect in comparison with PBS
- analgesic effect (pain score, walking) ([2]; intra-articular injection 24 hours after 1% silver nitrate, in comparison with PBS, listed as diclofenac-introduced hyaluronic acid derivative): showed the analgesic effect after the administration

Compound: Aminopropanol-felbinac-Introduced Hyaluronic Acid [Example 13]
- filter pass through test (passed amount per 1 minute) (Filter pass through test): A (2 ml or more was passed)
- appearance of the solution [3]: colorless and transparent liquid

Compound: Aminopropanol-fenbufen-Introduced Hyaluronic Acid [Example 15]
- filter pass through test (passed amount per 1 minute) (Filter pass through test): A (2 ml or more was passed)

Compound: Aminopropanol-flurbiprofen-Introduced Sodium Hyaluronate [Example 9]
- filter pass through test (passed amount per 1 minute) (Filter pass through test): A (2 ml or more was passed)
- appearance of the solution [3]: colorless and transparent liquid

Compound: Aminopropanol-ibuprofen-Introduced Sodium Hyaluronate [Example 7]
- filter pass through test (passed amount per 1 minute) (Filter pass through test): A (2 ml or more was passed)

Compound: Aminopropanol-mefenamic Acid-Introduced Hyaluronic Acid [Example 17]
- filter pass through test (passed amount per 1 minute) (Filter pass through test): A (2 ml or more was passed)
- appearance of the solution [3]: colorless and transparent liquid

Compound: Diaminopropane-diclofenac-Introduced Sodium Hyaluronate (DS 18.1%) [Example 41]
- analgesic effect (pain score, walking) [2, 4]: had no effect on the test system of this example
